# What was measured:
# Format in all cases: in vivo
# Neutrophil Count (ANC) [1] = assay: Lookup table: marker validity (nadir) window, Neutrophil Count (ANC); settings: days elapsed between current dose and marker
# Description: (§1) A lookup table has been constructed (see above example), in the form of a table, to represent the relationship of each trial Agent and its qualified Clinical Markers. This table includes information regarding the Maximum Dose and the Inverse Marker Applicability for each Agent. The gray cells on the Cycle Dose Modifier indicate these values.
# (§2) The table also includes information regarding the nadir of applicability for each Agent—Marker combination. The range, in days and indicated as the Lower Limit and Upper limit, has been determined by calculating a percentage (20%) above and below the true nadir value when only a single value is known. Otherwise, the upper and lower nadir values are used. […] The values of Upper and Lower limits is shown as a property of the Association between Markers and Agents. The Relevancy of a Marker can be computed using the lookup table by comparing the number of days elapsed between the date of the application of the current dose and the date on which the Marker was taken to the upper and lower values for that Agent Marker Association. If the elapsed days are greater than or equal to the lower limit and less than or equal to the upper limit, then the calculations provided by the Cycle Dose Modifier are said to be relevant and thereby applicable as indicated in the yellow Marker Validity cell. The Relevancy of Cycle Dose Modifier Calculations for Agent 1 is based on the Validity of Marker for Agent 1 calculated by: =IF(and((($B13−B6)>=VLOOKUP(B$3,Validity!$A$3:$K$8,10)),((B$13−B6)<=VLOOKUP(B$3,Validity!$A$3:$K$8,11))),“valid”,“invalid”)
# Platelets = assay: Lookup table: marker validity (nadir) window, Platelets; settings: days elapsed between current dose and marker
# Description: as §1, §2
# Neutrophil Count (ANC) [2] = assay: Chemotherapeutic triplet cycle dose modifier (Taxol, Gemzar, Carboplatin), toxicity marker; settings: patient on triplet
# Description: Table 3 illustrates a method of revising a drug dose in treating a patient with three pharamcologic and non-pharmacological modalities to optimize pharmacologic outcome, e.g., to reduce risk of an adverse drug event while assessing the clinical relevancy and validity of the measured surrogate markers. Previous Level of Toxicity-Efficacy (PLTE) is a value directly entered such as from a lab report. It is the numerical value of the marker of toxicity or efficacy reported at the previous dose cycle adjustment (evaluated at a specified elapsed time sufficient to capture the nadir of the dose effect). The surrogate marker is selected when the dose modifier is constructed. Current Level of Toxicity-Efficacy (CLTE) is a value directly entered such as from a lab report. It is the numerical value of the marker of toxicity or efficacy reported with the current dose cycle. The surrogate marker is that value that illustrates the expression of the toxicity or efficacy of the agent on a specific and pre-selected value determined when the dose modifier is constructed. […] If valid the value is fully appreciated and the dose modification can be calculated. […] The range, in days and indicated as the Lower Limit and Upper limit, has been determined by calculating a percentage (20%) above and below the true nadir value when only a single value is known. […]
# Hemoglobin (Hgb) = assay: Lookup table: marker validity (nadir) window, Hemoglobin (Hgb); settings: days elapsed between current dose and marker
# Description: as §1, §2
smiles,measurement,setting,value
CC(=O)O[C@H]1C(=O)[C@@]2(C)[C@H]([C@H](OC(=O)c3ccccc3)[C@]3(O)C[C@H](OC(=O)[C@H](O)[C@@H](NC(=O)c4ccccc4)c4ccccc4)C(C)=C1C3(C)C)[C@]1(OC(C)=O)CO[C@@H]1C[C@@H]2O [Taxol],Neutrophil Count (ANC) LL,Neutrophil Count (ANC) [1]; lower limit of nadir range,8 days
same,Neutrophil Count (ANC) UL,Neutrophil Count (ANC) [1]; upper limit of nadir range,11 days
same,Platelets LL,Platelets; lower limit of nadir range,8 days
same,Platelets UL,Platelets; upper limit of nadir range,11 days
same,Current Level of Toxicity/CLTEM1,"Neutrophil Count (ANC) [2]; current cycle total dose Taxol 450.00, Gemzar 7000.00, Carboplatin 650.00, marker Oct. 30, 2004",0.80
same,Previous Level of Toxicity/PLTEM1,"Neutrophil Count (ANC) [2]; previous cycle total dose Taxol 400.00, Gemzar 8000.00, Carboplatin 600.00",0.40
same,Hemoglobin (Hgb) LL,Hemoglobin (Hgb); lower limit of nadir range,8 days
same,Hemoglobin (Hgb) UL,Hemoglobin (Hgb); upper limit of nadir range,11 days
